Where two headings read alike, the source gives them in different places.
Key:
[1] = molecular target: benzodiazepine receptor (GABAA receptor); experiment: in vitro inhibition of 3H-flunitrazepam binding (rat cerebral cortex membranes); set-up: species or system rat (male Wistar
Excerpt: At present two types of GABA receptors are known, the GABAA and the GABAB receptors. […] Activation of GABA receptors leads to alternations in membrane potential (hyperpolarization). The GABAA receptors are associated with chloride influx through its associated and integrated chloride channel, whereas GABAB receptor activation indirectly alters potassium and calcium channels as well as modifies second messenger production. The GABAA recognition sites can be activated by GABA, muscimol; and isoguvacine for example, but not by GABAB agonists such as for example baclofen. The modulatory GABAA recognition site at the benzodiazepine receptor sites can be selectively radiolabelled with 3H-flunitrazepam. The affinity of various potential ligands for the benzodiazepine receptor sites can thus be evaluated by estimating the ability of test compounds to displace 3H-flunitrazepam.
Tissue preparations are performed at zero to four degrees Celsius. Cerebral cortex from male Wistar rats (150-200 g) is homogenized in 2 times 10 ml Tris-HCl, 30 mM at pH 7.4 The resulting suspension is centrifuged at 40,000 g for 15 minutes. The pellet is washed three times with buffer, centrifuged at two degrees Celsius at 40,000 g for ten minutes. The washed pellet is homogenized in 2 times 10 ml of buffer and is thereafter incubated on a water bath at 37° C. for 30 minutes and is thereafter centrifuged at 40,000 g for 10 minutes. The pellet is then homogenized with buffer and is centrifuged at 0° C. for 10 minutes at 40,000 g. The final pellet is resuspended in 30 ml buffer and the preparation may thereafter be stored at -20° C. In the test situation the membrane preparation is thawed and centrifuged at 2° C. for ten minutes at 48,000 g. The pellet is then washed two times with 2 times 10 ml 50 mM Tris-citrate at pH 7.1 using an Ultra-Turrax homogenizer and centrifuged at 48,000 g for 10 minutes. The hereby obtained pellet is resuspended in 50 mM Tris-citrate at pH 7.1,500 ml buffer per gram of original tissue, and is then used for binding assays. Aliquots of 0.5 ml tissue is added to 0.025 ml of 3H-flunitrazepam, final concentration of 1 nM, and is mixed and incubated for 40 minutes at 2° C. Non-specificbinding is determined using clonazepam, at 100 ng/ml final concentration. After incubation 5 ml of icecold buffer is added to the samples and these are poured directly onto Whatman GF/C glass fibre filters under suction and is immediately washed with 5 ml icecold buffer. The amount of radioactivity on the filters is determined by conventional liquid scintillation counting. Specific binding is total binding minus non specific binding. Test value is calculated as the IC50 which is equivalent to the concentration which inhibits the specific binding by 50 percent.
The method used to determine in vitro inhibition of ^3 H-flunitrazepam binding is presented under the heading of Biology.

[2] = tested on: GABAA receptor-ion channel complex (benzodiazepine receptor, mouse forebrain); experiment: in vivo inhibition of 3H-flunitrazepam binding in mouse forebrain; set-up: species or system mouse (female NMRI); conditions: i.p. 10 min before i.v. 3H-FNM, mice killed 20 min later, 30 min
[3] = tested on: GABAA receptor-ion channel complex; conditions: background statement, in vitro; cited from earlier work
[4] = first table, 1 nM 3H-flunitrazepam, 40 min at 2° C, read-out: IC50
[5] = second table (R6/R11), 3H-flunitrazepam, read-out: in-vitro binding IC50

Compound | IC50 [1, 4] [nM] | IC50 [1, 5] [nM] | in-vivo binding ED50 [2] [mg/kg] | binding to the GABAA receptor-ion channel complex (in words) [3]
CN1C(=O)c2ccccc2-n2cnc3cc(C(F)(F)F)cc1c32 [Compound 2f, 4-trifluoromethyl-6,7-dihydro-6-methyl-7-oxo-benzimidazo[3,4-ab][1,4]benzodiazepine] | 5.4 | – | – | –
FC(F)(F)c1ccc2c(c1)ncn2-c1cccc(-n2ccnc2)c1 [Compound 3a, 1-(3-(1-Imidazolyl)-phenyl)-5 trifluoromethylbenzimidazole] | – | 16 | 7.3 | –
CC(C)OC(=O)c1ccc2c(c1)ncn2-c1cccc(-n2ccnc2)c1 [Compound 4a] | – | 11 | > 10.0 | –
Cc1ccc2c(c1)ncn2-c1cccc(-n2ccnc2)c1 [Compound 5a, 1-[3-(1-imidazolyl)-phenyl]-5-methyl-benzimidazole] | 1.2 | 1.2 | 0.8 | –
CC(C)(C)c1ccc2c(c1)ncn2-c1cccc(-n2ccnc2)c1 [Compound 6a, 1-[3-(1-imidazolyl)-phenyl]-5-t-butyl-benzimidazole] | 2.4 | 2.4 | 2.1 | –
Cc1cn(-c2cccc(-n3cnc4cc(C(C)(C)C)ccc43)c2)cn1 [Compound 8a] | – | 11 | – | –
c1ccc(-c2ccc3c(c2)ncn3-c2cccc(-n3ccnc3)c2)cc1 [Compound 9a, 1-[3-(1-imidazolyl)-phenyl]-5-phenyl-benzimidazole] | 7.4 | 7.2 | 8.9 | –
CC(C)c1ccc2c(c1)ncn2-c1cccc(-n2ccnc2)c1 [Compound 14a, 1-[3-(1-imidazolyl)-phenyl]-5-i-propyl-benzimidazole] | 0.6 | 0.6 | 1.2 | –
Ic1ccc2c(c1)ncn2-c1cccc(-c2cccnc2)c1 [Compound 18a, 1-[3-(3-pyridyl)-phenyl]-5-iodo-benzimidazole] | 1.7 | 1.7 | 1.5 | –
CC(C)(C)c1ccc2c(c1)ncn2-c1cccc(-c2cccnc2)c1 [Compound 22a, 1-[3-(3-pyridyl)-phenyl]-5-t-butyl-benzimidazole] | – | 10 | 16.3 | –
O=[N+]([O-])c1ccc2c(c1)ncn2-c1cccc(-c2cccnc2)c1 [Compound 24a] | – | 40 | 6.1 | –
Cc1noc(-c2cccc(-n3cnc4cc(C(C)(C)C)ccc43)c2)n1 [Compound 33a] | – | 13 | 8.2 | –
CC(C)c1ccc2c(c1)ncn2-c1cccc(-n2cnc3ccccc32)c1 [Compound 34a, 1-[3-(1-benzimidazolyl)-phenyl]-5-i-propyl-benzimidazole] | 4.3 | 4.3 | 2.8 | –
Cc1nccn1-c1cccc(-n2cnc3cc(-c4ccccc4)ccc32)c1 [Compound 38a, 1-[3-(1-(2-methylimidazolyl))-phenyl]-5-phenyl-benzimidazole] | 9 | 9 | 2.6 | –
FC(F)(F)c1ccc2c(c1)ncn2-c1cccc(-n2cnc3ccccc32)c1 [Compound 39a, 1-[3-(1-benzimidazolyl)-phenyl]-5-trifluoromethyl-benzimidazole] | 9.2 | 9.2 | 7.5 | –
O=CNc1ccc2c(c1)ncn2-c1cccc(-n2ccnc2)c1 [Compound 41a] | – | 13 | > 10.0 | –
c1cncc(-c2cccc(-n3cnc4cc(-c5ccoc5)ccc43)c2)c1 [Compound 45a, 1-[3-(3-pyridyl)-phenyl]-5-(3-furanyl)-benzimidazole] | 1.2 | 1.4 | 1.9 | –
O=Cc1ccc2c(c1)ncn2-c1cccc(-c2cccnc2)c1 [Compound 50a, 1-(3-(3-pyridyl)phenyl)-5-formylbenzimidazole] | – | 37 | > 3 | –
ON=Cc1ccc2c(c1)ncn2-c1cccc(-c2cccnc2)c1 [Compound 52a, 1-(3-(3-pyridyl)phenyl)-5-aldoximobenzimidazole] | – | 3.3 | 1.6 | –
c1cncc(-c2cccc(-n3cnc4cc(-c5nc(C6CC6)no5)ccc43)c2)c1 [Compound 53a] | – | 28 | 24.0 | –
NC(=O)NN=Cc1ccc2c(c1)ncn2-c1cccc(-c2cccnc2)c1 [Compound 55a, 1-(3-(3-pyridyl)phenyl)-5-semicarbazonobenzimidazole] | – | 7.6 | > 3.0 | –
c1cncc(-c2cccc(-n3cnc4cc(-n5ccnc5)ccc43)c2)c1 [Compound 56a] | – | 22 | 6.8 | –
c1cncc(-c2cccc(-n3cnc4cc(-c5ccco5)ccc43)c2)c1 [Compound 57a, 1-[3-(3-pyridyl)-phenyl]-5-(2-furanyl)-benzimidazole] | – | 4.3 | 4.8 | –
COCc1ccc2c(c1)ncn2-c1cccc(-c2cccnc2)c1 [Compound 58a] | – | 15 | 1.7 | –
CON=Cc1ccc2c(c1)ncn2-c1cccc(-c2cccnc2)c1 [Compound 59a, 1-[3-(3-pyridyl)-phenyl]-5-methylaldoximo-benzimidazole] | – | 2 | 1.04 | –
CC(C)c1ccc2c(c1)ncn2-c1cccc(-c2cccnc2)c1 [Compound 60a, 1-[3-(3-pyridyl)-phenyl]-5-i-propyl-benzimidazole] | – | 4.2 | 2.2 | –
CN1C(=O)CN=C(c2ccccc2F)c2cc([N+](=O)[O-])ccc21 [^3 H-FNM] | – | – | – | selectively and with high-affinity

Source: US5554630A, “Benzimidazole compounds” (NeuroSearch A/S, priority 1993, dated 1996)
